Experimental data from PMC9804387, “Substrate Peptidomimetic Inhibitors of P. falciparum Plasmepsin X with Potent Antimalarial Activity” (Chemmedchem, 2022).
Values joined by “and” are separate entries in the source; they are usually repeats but may differ in a detail not shown here. Identical values can stand only once. Counter-ions that a name gives are not always drawn. Like-named read-outs stand apart in the source and are kept apart here.

Assays:
recombinant Pf PMX = biological target: T1, recombinant Pf PMX (Plasmodium falciparum, UniProt Q8IAS0); test: PMX biochemical FRET assay (Rh2N fluorogenic substrate cleavage); conditions: for IC50: 37 °C
T1 construct: made in house
T1 sequence (Q8IAS0 222-573): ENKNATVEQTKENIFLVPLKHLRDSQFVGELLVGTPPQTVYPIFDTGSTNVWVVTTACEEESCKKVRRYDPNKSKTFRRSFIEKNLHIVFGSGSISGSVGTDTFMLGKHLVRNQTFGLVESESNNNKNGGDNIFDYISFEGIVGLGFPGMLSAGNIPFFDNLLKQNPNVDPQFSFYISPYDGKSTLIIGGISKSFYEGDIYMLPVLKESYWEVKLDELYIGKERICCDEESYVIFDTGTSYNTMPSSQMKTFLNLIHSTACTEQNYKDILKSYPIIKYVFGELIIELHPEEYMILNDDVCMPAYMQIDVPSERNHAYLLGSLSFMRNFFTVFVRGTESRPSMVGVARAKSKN
Protocol: FRET Protease Assays. FRET protease assays were performed as previously described.[19, 20, 27, 28] Briefly, ten‐point 1 : 3‐fold dilution series of the compounds were prepared in 384‐well black low volume assay plates (Greiner) using an Echo555 (Labcyte). 10 mM compound stocks were transferred into assay plates such that the starting concentration was 90 μM (Pv PMV assays), 11.25 μM (renin, cathepsin D and BACE‐1 assays) or 100 nM and 10 μM (Pf PMX and Pf PMIX assays). All wells were backfilled to 200 nL DMSO such that the DMSO concentration remained constant across the assay plates (1 % final). All compound potency assays were conducted in 20 μL total volume. For each assay, 10 μL of recombinant enzymes in respective assay buffers (Table S2) were dispensed into compound containing assay plates using a Multidrop‐Combi dispenser and allowed to incubate for 15 min. Recombinant Pf PMX, Pf PMIX and Pv PMV were expressed as previously described,[23, 27, 28] and recombinant human aspartyl proteases were purchased commercially. 10 μL of the fluorogenic peptide substrates incubated at 37 °C for the duration and conditions noted in Table S2. Samples were excited at 340 nm and fluorescence emission measured at 492 nm using an Envision fluorescence plate reader (Perkin‐Elmer). The 0 % inhibition control contained DMSO alone (1 % final) and the 100 % inhibition control was in the absence of enzyme. […]
(§1) Table S2 . P rotease FRET assay conditions.
(§2) PMX as sa y PMIX PM V assay Renin assay Cathepsin D assay BA CE-1 assay E nzy me prot e as e 0.25 nM pro te a se 6 nM prot e as e q ua nti ty 0.1 nM pro t ea se 1.5 nM pro t ea se 2.5 nM pro t ea se 3 nM (Pro te os #R-001) ( Athe ns Re sea rc h (Sigma #S4195) […]
(§3) 25mM so di um acetate, 100 mM 25 mM M E S, 25 m M 50 mM Tr is, 100 mM 100 mM so di u m 20 mM so dium Buffer acetate, 0.005% sodium chloride and Tris-HCl, 0.01% N aC l, 0. 1% Bri j-35, acetate 0.02% scetate, 0.05% […]
(§4) Sub str at e DABCYL- ( DA BC YL ) - DABCYL- DABCYL-(γ- Ab u) - E[E(EDANS)]KPIL […]

[1] = system: P. falciparum (Pf) 3D7 parasites; test: P. falciparum LDH viability assay; type: cell-based; conditions: for fold decrease in parasite activity compared to PMX inhibition: Pf 3D7 EC50 versus PMX IC50; for EC50: Plasmodium falciparum, 3D7, 72 h, LDH activity, 72 h at 37 °C, mean and SD of 3 independent experiments
Protocol: P. falciparum LDH Viability Assay. P. falciparum LDH viability assays were performed as previously described.[40] Briefly, a ten‐point 1 : 3‐fold dilution series of the compounds were pre‐dispensed in 384‐well assay plates (Grenier), and RPMI/AlbuMAX growth media inoculated with synchronized ring stage P. falciparum parasites. 10 mM compound stocks were transferred into the assay plates such that the starting concentration was 10 μM. Plates were incubated for 72 h and then frozen at −80 °C overnight. Lactate dehydrogenase (LDH) activity was quantified with APAD by measuring absorbance of NBT at 650 nm. Data were normalized to percent growth inhibition using the positive control of 0.1 % DMSO alone and the negative control of 100 nM chloroquine. Half‐maximal effective concentration (EC50) values were calculated by GraphPad Prism (8.0.2) software using a nonlinear regression four‐parameter fit analysis using a sigmoidal dose response (variable slope).

in vitro = type: cell-based; conditions: human
Protocol: HepG2 Cytotoxicity Assay. HepG2 cytotoxicity assays were performed as previously described.[41] Briefly, human hepatocyte HepG2 cells were cultured in DMEM supplemented with 10 % FCS at 37 °C and 5 % CO2 in a humidified incubator. Cells were seeded at 1000 cells/well in 50 μL in 384‐well plates (Grenier) and compounds incubated in ten‐point 1 : 2‐fold dilution series for 48 h. Cytotoxicity was determined using Cell Titer‐Glo (Promega), normalized to DMSO alone controls (100 % viability) and control compound Bortezomib (0 % viability at 10 μM). CC50 values were calculated by GraphPad Prism (8.0.2) software using a nonlinear regression four‐parameter fit analysis with the sigmoidal dose response (variable slope).

recombinant Pf PMIX = biological target: T2, recombinant Pf PMIX (Plasmodium falciparum, UniProt Q8ILG2); test: PMIX FRET protease assay; type: biochemical, P. falciparum; conditions: mean and SD of 4 replicate FRET experiments, 37 °C
T2 construct: made in house
T2 sequence (Q8ILG2 whole entry): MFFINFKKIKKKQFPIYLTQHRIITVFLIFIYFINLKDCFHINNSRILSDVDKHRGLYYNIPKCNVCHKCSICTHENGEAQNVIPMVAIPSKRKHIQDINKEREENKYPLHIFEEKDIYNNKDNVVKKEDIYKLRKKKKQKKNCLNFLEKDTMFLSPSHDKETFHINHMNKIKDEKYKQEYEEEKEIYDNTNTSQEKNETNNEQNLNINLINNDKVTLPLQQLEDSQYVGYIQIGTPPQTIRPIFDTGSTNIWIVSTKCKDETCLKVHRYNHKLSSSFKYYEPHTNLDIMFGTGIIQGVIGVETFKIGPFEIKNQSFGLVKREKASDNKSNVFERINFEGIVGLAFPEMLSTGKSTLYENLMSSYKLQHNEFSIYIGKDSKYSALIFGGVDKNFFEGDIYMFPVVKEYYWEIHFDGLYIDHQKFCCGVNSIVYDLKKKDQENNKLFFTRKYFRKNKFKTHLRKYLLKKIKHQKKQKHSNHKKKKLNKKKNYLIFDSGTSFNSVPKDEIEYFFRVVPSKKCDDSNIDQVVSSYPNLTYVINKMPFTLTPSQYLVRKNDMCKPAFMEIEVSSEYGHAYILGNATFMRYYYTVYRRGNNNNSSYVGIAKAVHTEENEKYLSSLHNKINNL
Protocol: (§5) FRET Protease Assays. FRET protease assays were performed as previously described.[19, 20, 27, 28] Briefly, ten‐point 1 : 3‐fold dilution series of the compounds were prepared in 384‐well black low volume assay plates (Greiner) using an Echo555 (Labcyte). 10 mM compound stocks were transferred into assay plates such that the starting concentration was 90 μM (Pv PMV assays), 11.25 μM (renin, cathepsin D and BACE‐1 assays) or 100 nM and 10 μM (Pf PMX and Pf PMIX assays). All wells were backfilled to 200 nL DMSO such that the DMSO concentration remained constant across the assay plates (1 % final). All compound potency assays were conducted in 20 μL total volume. For each assay, 10 μL of recombinant enzymes in respective assay buffers (Table S2) were dispensed into compound containing assay plates using a Multidrop‐Combi dispenser and allowed to incubate for 15 min. Recombinant Pf PMX, Pf PMIX and Pv PMV were expressed as previously described,[23, 27, 28] and recombinant human aspartyl proteases were purchased commercially. 10 μL of the fluorogenic peptide substrates incubated at 37 °C for the duration and conditions noted in Table S2. Samples were excited at 340 nm and fluorescence emission measured at 492 nm using an Envision fluorescence plate reader (Perkin‐Elmer). The 0 % inhibition control contained DMSO alone (1 % final) and the 100 % inhibition control was in the absence of enzyme. Half‐maximal inhibitory concentration (IC50) values were calculated by GraphPad Prism (8.0.2) software using a nonlinear regression four‐parameter fit analysis using a sigmoidal dose response (variable slope).
as §1, §2, §3, §4

cathepsin D = biological target: T3, cathepsin D (Homo sapiens, UniProt P07339); test: Cathepsin D FRET protease assay; type: biochemical; conditions: mean and SD of 4 replicate FRET experiments, 37 °C; highest concentration tested 11 μM
T3 construct: purchased Athens Research 16-12-030104
T3 sequence (P07339 65-412): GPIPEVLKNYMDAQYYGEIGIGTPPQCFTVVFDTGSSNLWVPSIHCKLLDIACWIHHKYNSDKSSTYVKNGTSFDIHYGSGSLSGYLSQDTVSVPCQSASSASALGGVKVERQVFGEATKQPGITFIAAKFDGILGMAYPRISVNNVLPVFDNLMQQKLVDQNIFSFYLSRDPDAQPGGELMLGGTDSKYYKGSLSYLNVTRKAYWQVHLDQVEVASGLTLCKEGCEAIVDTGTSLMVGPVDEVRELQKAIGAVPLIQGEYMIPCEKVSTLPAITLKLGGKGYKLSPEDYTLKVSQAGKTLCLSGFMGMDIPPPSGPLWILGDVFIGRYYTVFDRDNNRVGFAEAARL

BACE‐1 = biological target: T4, BACE‐1 (Homo sapiens, UniProt P56817); test: BACE-1 FRET protease assay; type: biochemical; conditions: mean and SD of 4 replicate FRET experiments, 37 °C; highest concentration tested 11 μM
T4 construct: purchased Sigma S4195
T4 sequence (P56817 46-460 limits assumed): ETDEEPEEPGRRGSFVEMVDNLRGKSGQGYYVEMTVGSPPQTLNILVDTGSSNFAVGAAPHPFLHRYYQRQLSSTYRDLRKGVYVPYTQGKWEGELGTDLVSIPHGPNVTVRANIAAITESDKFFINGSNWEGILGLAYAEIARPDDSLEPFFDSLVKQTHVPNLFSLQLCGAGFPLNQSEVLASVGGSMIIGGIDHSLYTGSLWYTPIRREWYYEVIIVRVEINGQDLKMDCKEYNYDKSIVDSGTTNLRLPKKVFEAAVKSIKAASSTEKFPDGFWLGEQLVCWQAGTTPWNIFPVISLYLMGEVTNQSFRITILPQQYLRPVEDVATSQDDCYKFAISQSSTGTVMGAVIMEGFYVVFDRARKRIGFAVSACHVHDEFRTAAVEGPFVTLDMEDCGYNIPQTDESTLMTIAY

recombinant Pv PMV = biological target: T5, recombinant Pv PMV (Plasmodium vivax, UniProt A5K302); test: PMV FRET protease assay; type: biochemical
T5 construct: made in house
T5 sequence (A5K302 35-536): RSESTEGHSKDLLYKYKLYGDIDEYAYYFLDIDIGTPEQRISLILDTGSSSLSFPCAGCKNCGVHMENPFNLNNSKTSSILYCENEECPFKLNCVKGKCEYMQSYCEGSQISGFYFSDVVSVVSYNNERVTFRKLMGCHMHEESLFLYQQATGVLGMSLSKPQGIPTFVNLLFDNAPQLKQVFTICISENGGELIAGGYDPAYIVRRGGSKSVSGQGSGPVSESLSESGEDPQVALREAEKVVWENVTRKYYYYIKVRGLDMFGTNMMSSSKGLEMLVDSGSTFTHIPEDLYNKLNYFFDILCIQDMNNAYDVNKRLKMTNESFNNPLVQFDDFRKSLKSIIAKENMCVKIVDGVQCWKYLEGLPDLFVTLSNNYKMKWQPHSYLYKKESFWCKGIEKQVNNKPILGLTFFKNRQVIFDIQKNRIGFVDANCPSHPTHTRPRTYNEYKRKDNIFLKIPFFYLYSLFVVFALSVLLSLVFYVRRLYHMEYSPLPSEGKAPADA
Protocol: as §5, §1, §2, §3, §4

renin = biological target: T6, renin (Homo sapiens, UniProt P00797); test: Renin FRET protease assay; type: biochemical; conditions: mean and SD of 4 replicate FRET experiments, 37 °C; highest concentration tested 11 μM
T6 construct: purchased Proteos R-001
T6 sequence (P00797 67-406): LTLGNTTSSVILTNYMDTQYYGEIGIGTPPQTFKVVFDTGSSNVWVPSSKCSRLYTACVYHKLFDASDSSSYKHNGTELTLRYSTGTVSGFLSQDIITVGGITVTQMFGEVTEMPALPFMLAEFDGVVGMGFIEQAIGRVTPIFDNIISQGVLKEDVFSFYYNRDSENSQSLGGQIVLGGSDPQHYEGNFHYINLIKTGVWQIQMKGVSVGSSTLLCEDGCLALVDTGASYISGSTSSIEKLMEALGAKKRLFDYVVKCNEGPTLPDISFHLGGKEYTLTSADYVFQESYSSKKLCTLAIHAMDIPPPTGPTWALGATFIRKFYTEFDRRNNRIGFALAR

[2] = recombinant PMX, fluorogenic substrate (Rh2N) cleavage, 4 h, mean and SD of 4 replicates (Tables 1, 2)
[3] = Table 3, mean and SD of 4 replicate FRET experiments

IC50 (recombinant Pf PMX; [2]) | EC50 [1] [µM] | fold less active against PMX than the L‐configured Ser (38) counterpart (recombinant Pf PMX; PMX IC50 compared with 38) [fold] | SMILES | fold decrease in parasite activity compared to PMX inhibition [1] | CC50 at 48 h (in vitro) [µM] | IC50 (recombinant Pf PMIX) [µM] | IC50 (cathepsin D) [µM] | IC50 (BACE‐1) [µM] | IC50 (recombinant Pf PMX; [3]) [µM] | IC50 (recombinant Pv PMV) [µM] | IC50 (renin) [µM] | IC50 (recombinant Pv PMV; Table S2, positive control activity in assay, 90 min, read-out: Positive control IC50 in PMV assay) [µM]
0.58 µM | 6.7 |  | CC(=O)NC(CC(N)=O)C(=O)NC(CO)C(=O)NC(Cc1ccccc1)C(O)CNC(C)c1ccccc1 (stereo not drawn) [Compd 27, Ac‐Asn‐Ser‐Phe‐HEA‐Bn(CH3)⋅TFA] | approximately 10 fold | > 40 |  |  |  |  |  |  | 
< 1 µM and 0.2 µM | 1.6 |  | CC(C)CC(NC(=O)C(CO)NC(=O)OCc1ccccc1)C(=O)NC(Cc1ccccc1)C(O)CNC(C)c1ccccc1 (stereo not drawn) [Compd 24, Cbz‐Ser‐Leu‐Phe‐HEA‐Bn(CH3)⋅TFA] |  | > 40 |  |  |  |  |  |  | 
< 1 µM and 0.19 µM and 0.17 µM | 1.4 |  | CC(NCC(O)C(Cc1ccccc1)NC(=O)C(Cc1ccccc1)NC(=O)C(CO)NC(=O)OCc1ccccc1)c1ccccc1 (stereo not drawn) [Compd 22, Cbz‐Ser‐Phe‐Phe‐HEA‐Bn(CH3)⋅TFA] |  | > 40 |  |  |  |  |  |  | 
0.07 µM | 0.65 |  | C[C@@H](NC[C@@H](O)[C@H](Cc1ccccc1)NC(=O)[C@H](Cc1ccccc1)NC(=O)OCc1ccccc1)c1ccccc1 [Compd 36, Cbz‐Phe‐Phe‐HEA‐Bn(CH3)] | approximately 6 fold | > 40 |  |  |  |  |  |  | 
1.8 µM | 3.2 |  | CC(C)C[C@H](NC(=O)[C@H](CO)NC(=O)OCc1ccccc1)[C@H](O)CN[C@H](C)c1ccccc1 [Compd 41, Cbz‐Ser‐Leu‐HEA‐Bn(CH3)⋅TFA] |  | > 40 |  |  |  |  |  |  | 
> 1 µM and 3.6 µM | 6 |  | CC(C)CC(NC(=O)C(Cc1ccccc1)NC(=O)C(CO)NC(=O)OCc1ccccc1)C(O)CNC(C)c1ccccc1 (stereo not drawn) [Compd 23, Cbz‐Ser‐Phe‐Leu‐HEA‐Bn(CH3)⋅TFA] |  | 30 |  |  |  |  |  |  | 
0.18 µM | 0.6 |  | CC(C)C[C@H](NC(=O)OCc1ccccc1)C(=O)N[C@@H](Cc1ccccc1)[C@H](O)CN[C@H](C)c1ccccc1 [Compd 35, Cbz‐Leu‐Phe‐HEA‐Bn(CH3)] | approximately 6 fold | 18 |  |  |  |  |  |  | 
0.16 µM | 0.26 |  | CC(O)[C@H](NC(=O)OCc1ccccc1)C(=O)N[C@@H](Cc1ccccc1)[C@H](O)CN[C@H](C)c1ccccc1 (stereo partly drawn) [Compd 42, Cbz‐Thr‐Phe‐HEA‐Bn(CH3)⋅TFA] | 2 fold | > 40 |  |  |  |  |  |  | 
0.58 µM | > 11 |  | CC(=O)NC(CO)C(=O)NC(CO)C(=O)NC(Cc1ccccc1)C(O)CNC(C)c1ccccc1 (stereo not drawn) [Compd 28, Ac‐Ser‐Ser‐Phe‐HEA‐Bn(CH3)⋅TFA] | approximately 10 fold | > 40 |  |  |  |  |  |  | 
 |  |  | CC(C)C[C@H](NC(=O)[C@@H](NC(=O)[C@H](CCON=C(N)N)NC(=O)OCc1ccccc1)C(C)C)[C@@H](O)CC(=O)NCCc1ccccc1 [WEHI-842, reference compound] |  |  |  |  |  |  |  |  | 0.017
> 1 µM and 3.5 µM | > 11 |  | CC(C)CC(NC(=O)C(CO)NC(=O)OCc1ccccc1)C(=O)NC(CC(C)C)C(O)CNC(C)c1ccccc1 (stereo not drawn) [Compd 25, Cbz‐Ser‐Leu‐Leu‐HEA‐Bn(CH3)⋅TFA] |  | > 40 |  |  |  |  |  |  | 
0.33 µM | 0.57 | 7 | C[C@@H](NC[C@@H](O)[C@H](Cc1ccccc1)NC(=O)[C@@H](CO)NC(=O)OCc1ccccc1)c1ccccc1 [Compd 40, Cbz‐D‐Ser‐Phe‐HEA‐Bn(CH3)⋅TFA] |  | > 40 |  |  |  |  |  |  | 
3.3 µM | 6.2 |  | CC(=O)N[C@@H](CO)C(=O)N[C@@H](Cc1ccccc1)[C@H](O)CN[C@H](C)c1ccccc1 [Compd 39, Ac‐Ser‐Phe‐HEA‐Bn(CH3)⋅TFA] |  | > 40 |  |  |  |  |  |  | 

SMILES | IC50 (recombinant Pf PMX; [2]) | EC50 [1] [µM] | fold less active against PMX than the L‐configured Ser (38) counterpart (recombinant Pf PMX; PMX IC50 compared with 38) [fold] | fold decrease in parasite activity compared to PMX inhibition [1] | CC50 at 48 h (in vitro) [µM] | IC50 (recombinant Pf PMIX) [µM] | IC50 (cathepsin D) [µM] | IC50 (BACE‐1) [µM] | IC50 (recombinant Pf PMX; [3]) [µM] | IC50 (recombinant Pv PMV) [µM] | IC50 (renin) [µM] | IC50 (recombinant Pv PMV; Table S2, positive control activity in assay, 90 min, read-out: Positive control IC50 in PMV assay) [µM]
CC(C)[C@H](NC(=O)OCc1ccccc1)C(=O)N[C@@H](Cc1ccccc1)[C@H](O)CN[C@H](C)c1ccccc1 [Compd 34, Cbz‐Val‐Phe‐HEA‐Bn(CH3)] | 0.01 µM | 0.05 |  |  | 13 | 6.9 | > 11 | > 11 | 0.01 | > 90 | > 11 | 
CCC(C)[C@H](NC(=O)OCc1ccccc1)C(=O)N[C@@H](Cc1ccccc1)[C@H](O)CN[C@H](C)c1ccccc1 (stereo partly drawn) [Compd 37, Cbz‐Ile‐Phe‐HEA‐Bn(CH3)] | 0.02 µM | 0.14 |  |  | > 40 | 14.7 | 0.2 | > 11 |  | > 90 | > 11 | 
CCC(C)C(NC(C)=O)C(=O)NC(CO)C(=O)NC(Cc1ccccc1)C(O)CNC(C)c1ccccc1 (stereo not drawn) [Compd 26, Ac‐Ile‐Ser‐Phe‐HEA‐Bn(CH3)⋅TFA] | 0.01 µM | 0.19 |  |  | > 40 | 2.7 | > 11 | 2.9 | 0.01 | > 90 | > 11 | 
